Legend:
Assay in all cases: in vitro enzyme inhibition, optical density read-out
Assay type in all cases: biochemical
Settings in all cases: positive control; substrate, pH and temperature not given
Collagenase = target: T1, Collagenase
T1 construct: gene colG; usual assay enzyme is native clostridial collagenase, human MMP1 possible
Text: in vitro enzyme inhibition, optical density read-out on Collagenase

Elastase = target: T2, Elastase
T2 construct: gene CELA1; usual assay enzyme is native porcine pancreatic elastase, human neutrophil elastase possible
Text: in vitro enzyme inhibition, optical density read-out on Elastase

Hyaluronidase = target: T3, Hyaluronidase
T3 construct: gene SPAM1; usual assay enzyme is native bovine testicular hyaluronidase
Text: in vitro enzyme inhibition, optical density read-out on Hyaluronidase

SMILES | Collagenase / IC50 (Collagenase) | Elastase / IC50 (Elastase) | Hyaluronidase / IC50 (Hyaluronidase)
O=c1c(O)c(-c2ccc(O)c(O)c2)oc2cc(O)cc(O)c12 [Quercetin] | 24.83 ± 1.8 µg/mL |  | 
O=c1cc(CO)occ1O [Kojic acid] |  | 21.60 ± 0.9 µg/mL | 14.46 ± 0.6 µg/mL

Reference: paper PMC10948610, “Profiling of Petroselinum sativum (mill.) fuss phytoconstituents and assessment of their biocompatibility, antioxidant, anti-aging, wound healing, and antibacterial activities” (Frontiers in Nutrition, 2024)
